According to US9926294B2, “Pesticidally active heterocyclic derivatives with sulphur containing substituents” (Syngenta Participations AG, priority 2014, dated 2018):

Legend:
Format in all cases: in vivo
[1] = system: Diabrotica balteata (corn root worm); assay: Example B4: Diabrotica balteata larvae L2 on maize sprouts, feeding/contact, preventative; conditions: 120 h, L2 larvae on sprayed maize sprouts, 5 days incubation, read-out: activity (larval mortality, growth regulation)
Protocol: Example B4: Activity Against Diabrotica Balteata (Corn Root Worm)
(Larvae L2 on Maize Sprouts, Feeding/Contact, Preventative)
Maize sprouts, placed on an agar layer in 24 well micro titer plates were treated with test solutions by spraying. After drying, the MTPs were infested with L2 larvae (6-10 per well). After an incubation period of 5 days, samples were checked for larval mortality and growth regulation.

[2] = system: Spodoptera littoralis (Egyptian cotton leaf worm); assay: Example B1: Spodoptera littoralis larvicide, feeding/residual contact, preventive (cotton leaf discs); conditions: foliar, 72 h, L1 larvae on sprayed cotton leaf discs, 3 days after treatment, read-out: activity (mortality, repellent effect, feeding behaviour, growth regulation)
Source text: Example B1: Activity Against Spodoptera littoralis (Egyptian Cotton Leaf Worm)
Larvicide, Feeding/Residual Contact Activity, Preventive
Cotton leaf discs were placed on agar in a 24-well microtiter plate and sprayed with test solutions.
After drying, the leaf discs were infested with 5 L1 larvae. The samples were checked for mortality, repellent effect, feeding behaviour, and growth regulation 3 days after treatment (DAT).

[3] = system: Myzus persicae (green peach aphid); assay: Example B7: Myzus persicae systemic/feeding activity, curative, mixed population (pea seedlings); conditions: 144 h, roots of infested pea seedlings in test solution, 6 days after introduction, read-out: activity (mortality, special effects on the plant)
Source text: Example B7: Activity Against Myzus persicae (Green Peach Aphid)
(Systemic/Feeding Activity, Curative), Mixed Population
Roots of pea seedlings, infested with an aphid population of mixed ages, were placed directly in the test solutions. 6 days after introduction, samples were checked for mortality and special effects on the plant.

[4] = system: Myzus persicae (green peach aphid); assay: Example B6: Myzus persicae feeding activity sachet test, mixed population; conditions: 120 h, sachet test in sucrose solution, 5 days after infestation
Source text: Example B6: Activity Against Myzus persicae (Green Peach Aphid)
(Feeding Activity Sachet Test), Mixed Population
Test compounds were applied by pipette into 24 well plates and mixed with Sucrose solution. The plates were closed with a stretched Parafilm. A plastic stencil with 24 holes is placed onto the plate and infested pea seedlings were placed directly on the Parafilm. The infested plate is closed with a gel blotting paper and another plastic stencil and then turned upside down. 5 days after infestation the samples were checked on mortality. Application rate: 12.5 ppm.

[5] = system: Myzus persicae (green peach aphid); assay: Example B5: Myzus persicae feeding/residual contact, preventive, mixed population (sunflower leaf discs); conditions: foliar, 144 h, mixed population on sprayed sunflower leaf discs, 6 DAT, read-out: activity (mortality, special effects)
Protocol: Example B5: Activity Against Myzus persicae (Green Peach Aphid)
(Feeding/Residual Contact Activity, Preventive), Mixed Population
(§1) Sunflower leaf discs were placed on agar in a 24-well microtiter plate and sprayed with test solutions. After drying, the leaf discs were infested with an aphid population of mixed ages. After an incubation period of 6 DAT, samples were checked for mortality and special effects (e.g. phytotoxicity).

[6] = system: Plutella xylostella (diamond back moth); assay: Example B3: Plutella xylostella larvicide, feeding/residual contact, preventive (artificial diet); conditions: 120 h, L2 larvae on artificial diet, 5 days incubation, read-out: activity (larval mortality, antifeedant, growth regulation)
Protocol: Example B3: Activity Against Plutella xylostella (Diamond Back Moth)
(Larvicide, Feeding/Residual Contact Activity, Preventive)
24-well microtiter plate (MTP) with artificial diet was treated with test solutions by pipetting. After drying, the MTPs were infested with L2 larvae (10-15 per well). After an incubation period of 5 days, samples were checked for larval mortality, antifeedant and growth regulation.

[7] = system: Thrips tabaci (onion thrips); assay: Example B8: Thrips tabaci mixed population, feeding/residual contact, preventive; conditions: foliar, 168 h, mixed population on sprayed sunflower leaf discs, 7 days incubation, read-out: activity (mortality, special effects)
Protocol: Example B8: Activity Against Thrips tabaci (Onion Thrips)
(Mixed Population, Feeding/Residual Contact Activity, Preventive)
as §1, with “a thrips” for “an aphid”, “7 days,” for “6 DAT,”

[8] = system: Spodoptera littoralis (Egyptian cotton leaf worm); assay: Example B2: Spodoptera littoralis systemic activity (lettuce on agar); conditions: 120 h, systemic via lettuce roots, 5 days after infestation, read-out: activity (mortality, repellent effect, feeding behavior, growth regulation)
Source text: Example B2: Activity Against Spodoptera littoralis (Egyptian Cotton Leaf Worm)
Test compounds were applied by pipette into 24 well plates and mixed with agar. Lettuce seeds were placed on the agar and the multi well plate is closed by another plate which contains also agar. After 7 days the roots have absorbed the compound and the lettuce has grown into the lid plate. The lettuce leaves were now cut off into the lid plate. Spodoptera eggs were pipetted through a plastic stencil on a humid gel blotting paper and the plate closed with it. The samples are checked for mortality, repellent effect, feeding behavior, and growth regulation 5 days after infestation.

[9] = system: Bemisia tabaci (cotton white fly); assay: Example B9: Bemisia tabaci adulticide contact activity, preventative; conditions: foliar, 168 h, adult white flies on sprayed cotton leaf discs, 7 DAT, read-out: activity (mortality, special effects)
Protocol: Example B9: Activity Against Bemisia tabaci (Cotton White Fly)
(Adulticide Contact Activity, Preventative), Adult
Cotton leaf discs were placed on agar in a 24-well microtiter plate and sprayed with test solutions. After drying, the leaf discs were infested with adult white flies. After an incubation period of 7 DAT, samples were checked for mortality and special effects (e.g. phytotoxicity).

In the case of `CCS(=O)(=O)c1cc(C(F)(F)F)cnc1-c1nnc(-c2ccc3c(c2)OC(F)(F)O3)n1C` [Compound P56], the mortality at 400 ppm [1] is reported as > 80% and the mortality at 400 ppm [2] is reported as > 80%.

With `CCS(=O)(=O)c1cc(C(F)(F)F)cnc1-c1nnc(-c2ccc(C#N)cc2)n1C` [Compound P35] the mortality at 400 ppm [1] was > 80% and the mortality at 24 ppm [3] was ≥ 80%.

`CSc1cc(C(F)(F)F)cnc1-c1nnc(-c2cc(C(F)(F)F)ccn2)n1C` [Compound P70] was tested, and the mortality at 400 ppm [1] was > 80%.

For `CCS(=O)(=O)c1cc(C(F)(F)F)cnc1-c1nnc(-c2cccc(OC(F)(F)F)c2)n1C` [Compound P20], the mortality at 400 ppm [1] was > 80%, the mortality at 12.5 ppm [4] was ≥ 80% and the mortality at 400 ppm [2] was > 80%. For the same compound, the mortality at 400 ppm [5] was > 80%.

`Cn1c(-c2cc(C(F)(F)F)ccn2)nnc1-c1ncc(C(F)(F)F)cc1S(C)(=O)=O` [Compound P71] was tested, and the mortality at 400 ppm [1] was > 80%, the mortality at 24 ppm [3] was ≥ 80% and the mortality at 400 ppm [2] was > 80%. The mortality at 400 ppm [5] was > 80% and the mortality at 400 ppm [6] was > 80%.

In the case of `CCS(=O)(=O)c1cc(C(F)(F)F)cnc1-c1nnc(-c2ccc(F)c(Cl)c2)n1C` [Compound P15], the mortality at 400 ppm [1] is reported as > 80%, the mortality at 12.5 ppm [4] is reported as ≥ 80% and the mortality at 400 ppm [2] is reported as > 80%. The mortality at 400 ppm [5] was > 80%.

`CCS(=O)(=O)c1cc(C(F)(F)F)cnc1-c1nnc(-c2cc(Cl)cc(Cl)c2)n1C` [Compound P16] was tested, and the mortality at 400 ppm [1] was > 80%, the mortality at 400 ppm [2] was > 80% and the mortality at 400 ppm [5] was > 80%.

With `Cn1c(-c2cc(C(F)(F)F)ccn2)nnc1-c1ncc(C(F)(F)F)cc1SCC1CC1` [Compound P76] the mortality at 400 ppm [1] was > 80%, the mortality at 400 ppm [7] was > 80% and the mortality at 400 ppm [6] was > 80%.

In the case of `CCS(=O)(=O)c1cc(C(F)(F)F)cnc1-c1nnc(-c2cccc(C(F)(F)F)c2)n1C` [Compound P7], the mortality at 12.5 ppm [8] is reported as ≥ 80%, the mortality at 400 ppm [1] is reported as > 80% and the mortality at 24 ppm [3] is reported as ≥ 80%. For the same compound, the mortality at 12.5 ppm [4] was ≥ 80%, the mortality at 400 ppm [2] was > 80% and the mortality at 400 ppm [5] was > 80%. For the same compound, the mortality at 400 ppm [9] was > 80% and the mortality at 400 ppm [6] was > 80%.

`CCS(=O)(=O)c1cc(C(F)(F)F)cnc1-c1nnc(-c2cccc3c2OC(F)(F)O3)n1C` [Compound P30] was tested, and the mortality at 12.5 ppm [4] was ≥ 80% and the mortality at 400 ppm [5] was > 80%.

`CCS(=O)(=O)c1cc(OC(F)F)cnc1-c1nnc(-c2cc(C(F)(F)F)ccn2)n1C` [Compound P66] was tested, and the mortality at 12.5 ppm [8] was ≥ 80%, the mortality at 400 ppm [1] was > 80% and the mortality at 24 ppm [3] was ≥ 80%. The mortality at 400 ppm [2] was > 80%, the mortality at 400 ppm [5] was > 80% and the mortality at 400 ppm [6] was > 80%.

With `Cn1c(-c2cc(C(F)(F)F)ccn2)nnc1-c1ncc(C(F)(F)F)cc1S(=O)(=O)CC1CC1` [Compound P72] the mortality at 400 ppm [7] was > 80% and the mortality at 400 ppm [6] was > 80%.

With `CCS(=O)(=O)c1cc(C(F)(F)F)cnc1-c1nnc(-c2cccc(C#N)c2)n1C` [Compound P34] the mortality at 24 ppm [3] was ≥ 80% and the mortality at 400 ppm [5] was > 80%.

For `CCS(=O)(=O)c1cc(C(F)(F)F)cnc1-c1nnc(-c2ccc(C(F)F)cc2)n1C` [Compound P53], the mortality at 400 ppm [5] was > 80%.

With `CCS(=O)(=O)c1cc(C(F)(F)F)cnc1-c1nnc(-c2cc(C(F)(F)F)ccc2F)n1C` [Compound P19] the mortality at 400 ppm [5] was > 80%.

With `CCS(=O)(=O)c1cc(C(F)(F)F)cnc1-c1nnc(-c2ccc(C(F)(F)F)cn2)n1C` [Compound P10] the mortality at 400 ppm [1] was > 80% and the mortality at 400 ppm [2] was > 80%.

With `CCS(=O)(=O)c1cc(C(F)(F)F)cnc1-c1nnc(-c2ccc(C(F)(C(F)(F)F)C(F)(F)F)cc2)n1C` [Compound P21] the mortality at 400 ppm [1] was > 80% and the mortality at 400 ppm [2] was > 80%.

`CCSc1cc(C(F)(F)F)ccc1-c1nnc(-c2ccc(C(F)(F)F)nc2)n1C` [Compound P54] was tested, and the mortality at 400 ppm [1] was > 80%.

In the case of `CCS(=O)(=O)c1cc(C(F)(F)F)cnc1-c1nnc(-c2cc(C(F)(F)F)cc(Cl)n2)n1C` [Compound P63], the mortality at 400 ppm [1] is reported as > 80% and the mortality at 400 ppm [2] is reported as > 80%.

With `CCS(=O)(=O)c1cc(C(F)(F)F)cnc1-c1nnc(-c2ccnc(C(F)(F)F)c2)n1C` [Compound P8] the mortality at 24 ppm [3] was ≥ 80%, the mortality at 400 ppm [5] was > 80% and the mortality at 400 ppm [9] was > 80%.

With `CCS(=O)(=O)c1cc(C(F)(F)F)cnc1-c1nnc(-c2ccc(OC(F)(F)F)cc2)n1C` [Compound P33] the mortality at 12.5 ppm [8] was ≥ 80%, the mortality at 12.5 ppm [4] was ≥ 80% and the mortality at 400 ppm [2] was > 80%. For the same compound, the mortality at 400 ppm [5] was > 80% and the mortality at 400 ppm [6] was > 80%.

`CCS(=O)(=O)c1cc(C(F)(F)F)cnc1-c1nnc(-c2ccc(Cl)c(F)c2)n1C` [Compound P22] was tested, and the mortality at 400 ppm [1] was > 80%, the mortality at 12.5 ppm [4] was ≥ 80% and the mortality at 400 ppm [2] was > 80%. The mortality at 400 ppm [5] was > 80%.

`CCS(=O)(=O)c1cc(C(F)(F)F)cnc1-c1nnc(-c2ccc(Cl)c(Cl)c2)n1C` [Compound P46] was tested, and the mortality at 400 ppm [1] was > 80%, the mortality at 400 ppm [2] was > 80% and the mortality at 400 ppm [5] was > 80%.

In the case of `CCS(=O)(=O)c1cc(C(F)(F)F)cnc1-c1nnc(-c2ccc(C(F)(F)F)cc2)n1C` [Compound P5], the mortality at 12.5 ppm [8] is reported as ≥ 80%, the mortality at 400 ppm [1] is reported as > 80% and the mortality at 400 ppm [2] is reported as > 80%. For the same compound, the mortality at 400 ppm [6] was > 80%.

For `CCS(=O)(=O)c1cc(C(F)(F)F)cnc1-c1nnc(-c2ccc(C(F)(F)F)c(C(F)(F)F)c2)n1C` [Compound P61, 2-[5-[3,4-bis(trifluoromethyl)phenyl]-4-methyl-1,2,4-triazol-3-yl]-3-ethylsulfonyl-5-(trifluoromethyl)pyridine], the mortality at 400 ppm [1] was > 80%, the mortality at 400 ppm [2] was > 80% and the mortality at 400 ppm [5] was > 80%. For the same compound, the mortality at 400 ppm [9] was > 80% and the mortality at 400 ppm [6] was > 80%.

With `CCSc1cc(C(F)(F)F)cnc1-c1nnc(-c2cc(C(F)(F)F)ccn2)n1CC` [Compound P64] the mortality at 400 ppm [1] was > 80% and the mortality at 400 ppm [2] was > 80%.

For `CCS(=O)(=O)c1cc(C(F)(F)F)cnc1-c1nnc(-c2cccc(C(F)(F)Cl)c2)n1C` [Compound P24], the mortality at 400 ppm [1] was > 80%, the mortality at 12.5 ppm [4] was ≥ 80% and the mortality at 400 ppm [2] was > 80%. The mortality at 400 ppm [5] was > 80% and the mortality at 400 ppm [6] was > 80%.

For `CCSc1cc(C(F)(F)F)cnc1-c1nnc(-c2cccc(C(F)(F)F)n2)n1C` [Compound P49], the mortality at 400 ppm [9] was > 80%.

With `CCS(=O)(=O)c1cc(C(F)(F)F)ccc1-c1nnc(-c2ccc(C(F)(F)F)nc2)n1C` [Compound P55] the mortality at 400 ppm [1] was > 80%, the mortality at 24 ppm [3] was ≥ 80% and the mortality at 400 ppm [5] was > 80%.

`CCS(=O)(=O)c1cc(C(F)(F)F)cnc1-c1nnc(-c2cc(C(F)(F)F)cc(C(F)(F)F)c2)n1C` [Compound P12] was tested, and the mortality at 400 ppm [2] was > 80% and the mortality at 400 ppm [6] was > 80%.

In the case of `CCS(=O)(=O)c1cc(OC(F)F)cnc1-c1nnc(-c2ccc(C(F)(F)F)nc2)n1C` [Compound P58], the mortality at 24 ppm [3] is reported as ≥ 80%, the mortality at 400 ppm [5] is reported as > 80% and the mortality at 400 ppm [9] is reported as > 80%.
